Assay results as given in patent publication US20220033405A1, “PHARMACEUTICAL COMPOSITION FOR PREVENTING OR TREATING CANCER CONTAINING PLK1 INHIBITOR AS ACTIVE INGREDIENT” (NATIONAL CANCER CENTER, priority 2018, published 2022).

How the values were obtained:
MDA-MB-468 cells = test: Cancer cell growth inhibition (DAPI nuclei count), breast cancer line; type: cell-based; settings: treated 1 and 3 days after attachment
Protocol: For this purpose, experiments were performed using liver cancer, breast cancer, hematologic cancer, cervical cancer, and prostate cancer cell lines, a murine liver cancer cell line HEPA 1-6 and a breast cancer cell line MDA-MB-468 were cultured in a DMEM medium supplemented with 10% fetal bovine serum (FBS) and 1% penicillin/streptomycin, the other cell lines were cultured in a RPMI1640 medium supplemented with the same additives, and the cell lines were used in the experiment.
To examine the ability of the compound to inhibit the growth of the breast cancer cell line, the compounds was treated at each indicated μM concentration 1 and 3 days after cell attachment, and the control was treated with a 0.1% solvent (DMSO). […] After the cells were additionally rinsed once with PBS, cells stained with DAPI were photographed by Cytation 3, and the resulting images were analyzed with Gen5 software (Biotek, USA). Meanwhile, cells that grew in a floating manner without being attached to the culture plate were treated with a 4% paraformaldehyde solution, reacted at room temperature for 10 minutes to fix the cells, and then photographed in a bright field by Cytation3, and the resulting images were analyzed by Gen5 software (Biotek, USA). […]

liver cancer cell lines = test: Mixed treatment of Compound 2 (M2) and BI2536; type: cell-based; settings: mixture of Compound 2 (M2) at a low concentration and BI2536
[1] = tested on: HepG2 orthotopic xenograft; test: Liver cancer orthotopic xenograft model (HepG2), 5 and 20 mg/kg; type: in vivo, BalB/c nude mice; settings: M2 5 and 20 mg/kg i.p. once every two days, 10 treatments for 3 weeks
Protocol: Another experiment was performed on the same liver cancer cell line by varying the experimental method. 5×10^6 HepG2 cells were injected into the backs of BalB/c nude mice, and when a sufficient cancer tissue was formed about 3 weeks later, the tissue was removed, uniformly cut into 1 mm^3, and transplanted into the right median lobe of the liver by excising the abdomen within 1 cm.
Small spots were confirmed on the MRI image about 10 days after transplanting the liver cancer tissue into 20 BalB/C nude mice by the above method, so that rodents with well-established liver cancer were divided into 3 groups (about 50 to 60%) (see FIG. 21A), a control and a hit (M2) material at 5 mg/kg and 20 mg/kg were injected into the abdominal cavity once every two days using less than 1.5% DMSO as a solvent (vehicle), and once a week, MRI images were used to select (follow up) rodents with constant tissue growth. Then, in a state in which the rapidly growing cancer tissue was 1 cm or less, the cancer tissue was observed after sacrificing the mice (10 treatments for 3 weeks).

human liver cancer PDX = test: Orthotopic xenograft model using human liver cancer PDX; type: in vivo, BalB/C nude mice; settings: M2 40 mg/kg i.p. once every two days, 11 treatments for 3 weeks
Protocol: A cancer tissue isolated from human liver cancer was transplanted into skin tissues of BalB/C nude mice and the skin tissues were grown into cancer tissues, so that a tissue established as a PDX model was used, uniformly cut into 1 mm^3, and transplanted into the right median lobe of the liver by excising the abdomen within 1 cm. Sm all spots were confirmed on the MRI image about 10 days after transplanting the liver cancer tissue into 20 BalB/C nude mice by the above method, so that rodents with well-established liver cancer were divided into 3 groups (see FIGS. 22A, 22B, and 22C), a solvent control (DMSO), a hit (M2) material at 40 mg/kg, and BI2536 at 4 mg/kg were injected into the abdominal cavity once every two days using less than 1.5% DMSO as a solvent (vehicle), and once a week, MRI images were used to select (follow up) rodents with constant tissue growth. Then, when the rapidly growing cancer tissue was 1 cm or less, the cancer tissue was observed after sacrificing the mice (11 treatments for 3 weeks).

Cn1c2nc(=O)[nH]c(=O)c-2nc2ccccc21 [Compound 2, 10-methyl-2H,3H,4H,10H-benzo[g]pteridine-2,4-dione]
number of cells (MDA-MB-468 cells): the number of cells was remarkably reduced in proportion to the treatment concentration | inhibition of cancer cells by mixed treatment (liver cancer cell lines): the cooperative ability of BI2536 to inhibit cancer cells could be observed | volume of the cancer tissue [1]: reduced remarkably as the dose of M2 was increased | weight of the cancer tissue [1]: reduced remarkably as the dose of M2 was increased | volume of the cancer tissue (human liver cancer PDX): reduced remarkably | weight of the cancer tissue (human liver cancer PDX): reduced remarkably
